Test results taken from patent publication US8124582B2, “Treatment of diabetes” (FibroGen, Inc., priority 2002, dated 2012).

Tests used:
[1] = test system: HIF-1α; experiment: HIF-1α stabilization in cells, TRANSAM HIF-1 ELISA of nuclear fractions; format: cell-based, Human; details: epithelial cells (293A) and hepatocellular carcinoma (Hep3B); FIG. 12B
Procedure: Stabilization of HIFα using compounds and methods of the present invention was examined as follows. Human cells derived from adenovirus-transformed fetal kidney epithelium (293A), cervical epithelial adenocarcinoma (HeLa), hepatocellular carcinoma (Hep3B), squamous carcinoma (SSC-25), and lung fibroblast (HLF) (see, e.g., American Type Culture Collection, Manassas Va.; and Qbiogene, Carlsbad Calif.) were separately seeded into 100 mm culture dishes and grown at 37° C., 20% O2, 10% CO2 in media as follows: HeLa cells in Dulbecco's Modification of Eagle's Medium (DMEM), 2% fetal bovine serum (FBS); HLF cells in DMEM, 10%FBS; 293A cells in DMEM, 5%FBS; and Hep3B cells in Minimal Essential Medium (MEM), Earle's BSS (Mediatech Inc., Herndon Va.), 2 mM L-glutamine, 0.1 mM non-essential amino acids, 1 mM sodium pyruvate, 10% FBS. When cell layers reached confluence, the media was replaced with OPTI-MEM media (Invitrogen Life Technologies, Carlsbad Calif.) and cell layers were incubated for approximately 24 hours in 20% O2, 10% CO2 at 37° C. Compound of the invention (one of compounds B, F, G, and H) or DMSO (0.5 to 1%) was then added to existing medium, and incubation was continued overnight.
Alternatively, nuclear fractions were prepared using a Nuclear Extract kit (Active Motif, Carlsbad Calif.) and were analyzed for HIF-1α using a TRANSAM HIF-1 ELISA kit (Active Motif) according to the manufacturer's instructions.

[2] = Glycated hemoglobin (HbA1c) in db/db mice; format: in vivo, male db/db mice; details: 0.5 mg/ml in drinking water
Procedure: The effect of compound administration on glycated hemoglobin levels was examined using a mouse model of diabetes as follows. Twenty male db/db mice (Harlan) received drinking water containing either vehicle (100 μM histidine) or compound A (0.5 mg/ml) for a period of 8 weeks. Prior to study initiation and at weeks 4 and 8 following treatment, blood samples were collected from the tail vein and HbA1c levels were measured using an HbA1cNOW kit (Metrika Inc., Sunnyvale Calif.).

[3] = Body weight gain, abdominal fat pad and organ weight in diet-induced obesity model; format: in vivo, male C57BL/6J mice; details: C57BL/6J mice, 75 mg/kg/day oral gavage, 28 days; for abdominal fat pad weight on high-fat diet: FIG. 9B; for organ weights of kidney, liver, and heart between experimental groups: FIG. 9C; for body weight gain on high-fat diet vs untreated high-fat diet: p<0.05, FIG. 9A
Description: C57B1/6J mice fed a high-fat diet develop severe obesity, hyperglycemia, and hyperinsulinemia, and are a model of diet-induced obesity, Type 2 diabetes, and impaired glucose tolerance. Forty male C57BL/6J mice obtained from The Jackson Laboratory (Bar Harbor Me.) were divided into the following experimental groups: Group 1: vehicle control animals fed standard mouse chow (n=10); Group 2: vehicle control animals fed high-fat mouse chow (45% fat from Research Diets) (n=10); Group 3: animals fed high-fat mouse chow and administered 75 mg/kg/day compound E by oral gavage (n=10); Group 4: animals fed high-fat mouse chow and administered 75 mg/kg/day compound A by oral gavage (n=10). The feeding regimen was continued for 28 days with weekly measurement of body weight. Animals were then sacrificed and their organs and fat pads were harvested and weighed.

[4] = Serum triglyceride levels in db/db mice; format: in vivo, male db/db mice; details: 0.5 mg/ml in drinking water, 8 weeks
Description: The effect of compound administration on triglyceride levels was examined using a mouse model of diabetes as follows: Twenty male db/db mice (Harlan, Indianapolis, Ind.), which carry a homozygous loss-of-function mutation in the leptin receptor, were used for this study. Triglycerdide levels are typically elevated 1.5-2 times in db/db mice compared to that in normal mice. (Nishina et al (1994) Metabolism 43:549-553.) Triglyceride levels in db/db mice progressively increase with age. (Tuman and Doisy (1977) Diabetologia 13:7-11.) Mice received drinking water containing either vehicle (100 μM histidine) or compound A (0.5 mg/ml in 100 μM histidine) for a period of 8 weeks. At the termination of the study, animals were fasted overnight and blood samples were taken from the caudal vena cava under general anesthesia and placed in serum separator tubes. Blood samples were sent to Quality Clinical Labs (Mountain View, Calif.) for analysis.

[5] = Intra-Peritoneal Glucose Tolerance Test in diet-induced Type 2 diabetes model; format: in vivo, male C57BL/6J mice; details: 75 mg/kg/day oral gavage, 14 days
Procedure: C57B1/6J mice fed a high-fat diet develop severe obesity, hyperglycemia, and hyperinsulinemia, and are a model of diet-induced obesity, Type 2 diabetes, and impaired glucose tolerance. Forty male C57BL/6J mice obtained from The Jackson Laboratory (Bar Harbor Me.) were divided into the following experimental groups: Group 1: vehicle control animals fed standard mouse chow (n=10); Group 2: animals fed standard mouse chow and administered 75 mg/kg/day compound E by oral gavage (n=10); Group 3: vehicle control animals fed high-fat mouse chow (45% fat from Research Diets) (n=10); Group 4: animals fed high-fat mouse chow and administered 75 mg/kg/day compound E by oral gavage (n=10). The feeding regimen was continued for 14 days with daily measurement of body weight and food consumption. Animals were then fasted for 4 hours prior to an Intra-Peritoneal Glucose Tolerance Test (IPGTT) using a glucose load of 2 g glucose/kg body weight. Blood samples were taken for determination of blood glucose levels at 0, 15, 30, 60, and 90 minutes following glucose administration.

[6] = test system: GluT-1; experiment: GluT-1 protein levels in H9c2 cells (Western blot); format: cell-based, rat; details: H9c2 cells, 5, 10, and 20 μM, 16 hours; FIG. 1B
Procedure: Human SSC-25 (squamous cell carcinoma) or rat H9c2 (ventricular cardiomyocyte) cells were grown to confluence in 100 mm culture dishes at 37° C., 10% CO2 in DMEM with 10% fetal calf serum. Cells were then washed twice with PBS and incubated with vehicle control, compound D (10 and 25 μM), or compound C (5, 10, and 20 μM) for 16 hours. Plates were placed on ice, culture supernatant was removed, and lysis buffer-1 (LB-1: 10 mM Tris pH 7.4, 1 mM EDTA, 150 mM sodium chloride, 0.5% IGEPAL) was added. Cell lysates were harvested by scraping, incubated for 15 minutes on ice, and then centrifuged at 3000×g for 5 minutes at 4° C. The supernatant, which represents the cytosolic fraction, was collected and cytosolic proteins were separated under reducing conditions using SDS-polyacrylamide gel electrophoresis (SDS-PAGE) with equal amounts of protein loaded per lane.
SDS-PAGE was conducted at 150 V for 2 hours, after which the proteins were transferred to a PVDF membrane at 400 mA for 1.5 hours at 4° C. The membrane was incubated in blocking buffer for 2 hours or overnight and washed once with T-TBS prior to addition of anti-GluT-1 antibody (Alpha Diagnostics) diluted to working concentration in blocking buffer. […]

Structure (SMILES): CC(C)Oc1ccc2nc(C(=O)NCC(=O)O)c(O)cc2c1 [compound F, [(3-Hydroxy-6-isopropoxy-quinoline-2-carbonyl)-amino]-acetic acid]
- HIFα stabilization and accumulation (ELISA) compared to vehicle-treated control cells [1]: stabilization and accumulation of HIFα

Structure (SMILES): O=C(O)CNC(=O)c1nc2cc(Cl)ccc2cc1O [compound A, [(7-Chloro-3-hydroxy-quinoline-2-carbonyl)-amino]-acetic acid]
- HbA1c levels at week 8 vs non-treated [2]: significantly lower
- HbA1c levels at week 8 ([2]; 8 weeks, control rose from about 7.5% to about 10%, FIG. 6): about 7.5%
- HbA1c levels over time ([2]; weeks 0 to 8): did not increase over time
- abdominal fat pad weight on high-fat diet [3]: essentially the same fat pad weight as animals fed a normal diet
- organ weights of kidney, liver, and heart between experimental groups [3]: not different
- body weight gain on high-fat diet vs untreated high-fat diet [3]: significantly less weight gain
- triglyceride level vs controls [4]: significantly lower than controls
- triglyceride level ([4]; fasted overnight, control approximately 120 mg/dL, FIG. 11): approximately 85 mg/dL

Structure (SMILES): COC(=O)CNC(=O)c1nc(Cl)c2cc(OCc3ccccc3)ccc2c1O [compound H, [(7-Benzyloxy-1-chloro-4-hydroxy-isoquinoline-3-carbonyl)-amino]-acetic acid methyl ester]
- HIFα stabilization and accumulation (ELISA) compared to vehicle-treated control cells [1]: stabilization and accumulation of HIFα

Structure (SMILES): COc1ccc2c(O)c(C(=O)NCC(=O)O)nc(Cl)c2c1 [compound E, [(1-Chloro-4-hydroxy-7-methoxy-isoquinoline-3-carbonyl)-amino]-acetic acid]
- glucose clearance rate in IPGTT, treated high-fat diet mice (RxHF) vs mice on standard chow ([5]; 2 g glucose/kg, FIG. 5A): substantially the same
- glucose AUC in IPGTT, treated mice (RxChow, RxHF) vs standard chow without compound (VeChow) ([5]; FIG. 5B): no statistical difference
- glucose AUC in IPGTT, high-fat chow without compound (VeHF) vs high-fat chow treated (RxHF) ([5]; t-test, p<0.05, FIG. 5B): statistically significant difference
- abdominal fat pad weight on high-fat diet [3]: essentially the same fat pad weight as animals fed a normal diet
- organ weights of kidney, liver, and heart between experimental groups [3]: not different
- body weight gain on high-fat diet vs untreated high-fat diet [3]: significantly less weight gain

Structure (SMILES): O=C(O)CNC(=O)c1ncccc1O [compound G, [(3-Hydroxy-pyridine-2-carbonyl)-amino]-acetic acid]
- HIFα stabilization and accumulation (ELISA) compared to vehicle-treated control cells [1]: stabilization and accumulation of HIFα

Structure (SMILES): O=C(O)CNC(=O)c1ncc2cc(Oc3ccccc3)ccc2c1O [compound C, [(4-Hydroxy-7-phenoxy-isoquinoline-3-carbonyl)-amino]-acetic acid]
- protein levels of GluT-1 [6]: increased
